Assay results as given in ChEMBL document CHEMBL1781973, “Novel and Potent 5-Piperazinyl Methyl-N 1-aryl Sulfonyl Indole Derivatives as 5-HT6 Receptor Ligands” (ACS Med Chem Lett, 2010).
Calls of active or inactive are those of the source. No cut-off for these calls is given here.

Legend:
[1] = target: 5-hydroxytryptamine receptor 6 (Homo sapiens, UniProt P50406); assay: biochemical
Description: Displacement of [3H]LSD from human 5HT6 receptor expressed in HEK293 cells

[2] = target: T1, CYP1A2 (Homo sapiens, UniProt P05177); assay: Inhibition of human CYP1A2 at 3 uM; type: ADME
T1 sequence (P05177 whole entry): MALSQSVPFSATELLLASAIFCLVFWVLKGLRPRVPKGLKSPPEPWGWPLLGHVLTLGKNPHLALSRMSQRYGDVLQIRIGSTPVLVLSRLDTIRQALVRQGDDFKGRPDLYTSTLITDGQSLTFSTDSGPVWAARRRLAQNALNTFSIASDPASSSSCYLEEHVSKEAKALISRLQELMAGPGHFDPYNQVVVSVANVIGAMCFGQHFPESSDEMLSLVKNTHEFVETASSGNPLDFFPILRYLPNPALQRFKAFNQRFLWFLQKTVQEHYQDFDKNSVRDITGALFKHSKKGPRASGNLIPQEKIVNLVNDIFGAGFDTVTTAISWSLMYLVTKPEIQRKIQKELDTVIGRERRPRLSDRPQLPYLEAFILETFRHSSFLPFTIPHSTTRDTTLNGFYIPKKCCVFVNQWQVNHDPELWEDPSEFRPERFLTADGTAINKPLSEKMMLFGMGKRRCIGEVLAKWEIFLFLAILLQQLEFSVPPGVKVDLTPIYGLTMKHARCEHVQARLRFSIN

[3] = tested on: CYP2C9*1; assay: Inhibition of human CYP2C9*1 at 10 uM; type: ADME
[4] = tested on: CYP2C9*1; assay: Inhibition of human CYP2C9*1 at 3 uM; type: ADME
[5] = target: T2, CYP2C19 (Homo sapiens, UniProt P33261); assay: Inhibition of human CYP2C19 at 10 uM; type: ADME
T2 sequence (P33261 whole entry): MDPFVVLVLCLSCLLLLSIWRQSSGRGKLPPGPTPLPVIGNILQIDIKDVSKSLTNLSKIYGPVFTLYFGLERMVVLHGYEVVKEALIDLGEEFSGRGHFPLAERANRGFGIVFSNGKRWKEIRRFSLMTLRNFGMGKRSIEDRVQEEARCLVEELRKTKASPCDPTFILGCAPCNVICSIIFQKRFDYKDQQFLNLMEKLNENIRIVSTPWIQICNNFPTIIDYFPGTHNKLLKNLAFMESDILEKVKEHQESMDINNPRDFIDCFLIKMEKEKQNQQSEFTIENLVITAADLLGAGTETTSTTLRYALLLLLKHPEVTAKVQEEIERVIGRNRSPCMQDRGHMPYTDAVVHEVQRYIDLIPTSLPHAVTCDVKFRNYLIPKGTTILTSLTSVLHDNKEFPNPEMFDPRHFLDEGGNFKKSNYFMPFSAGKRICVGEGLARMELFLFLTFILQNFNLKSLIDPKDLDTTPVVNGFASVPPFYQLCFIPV

[6] = target: T3, CYP3A4 (Homo sapiens, UniProt P08684); assay: Inhibition of human CYP3A4 at 3 uM; type: ADME
T3 sequence (P08684 whole entry): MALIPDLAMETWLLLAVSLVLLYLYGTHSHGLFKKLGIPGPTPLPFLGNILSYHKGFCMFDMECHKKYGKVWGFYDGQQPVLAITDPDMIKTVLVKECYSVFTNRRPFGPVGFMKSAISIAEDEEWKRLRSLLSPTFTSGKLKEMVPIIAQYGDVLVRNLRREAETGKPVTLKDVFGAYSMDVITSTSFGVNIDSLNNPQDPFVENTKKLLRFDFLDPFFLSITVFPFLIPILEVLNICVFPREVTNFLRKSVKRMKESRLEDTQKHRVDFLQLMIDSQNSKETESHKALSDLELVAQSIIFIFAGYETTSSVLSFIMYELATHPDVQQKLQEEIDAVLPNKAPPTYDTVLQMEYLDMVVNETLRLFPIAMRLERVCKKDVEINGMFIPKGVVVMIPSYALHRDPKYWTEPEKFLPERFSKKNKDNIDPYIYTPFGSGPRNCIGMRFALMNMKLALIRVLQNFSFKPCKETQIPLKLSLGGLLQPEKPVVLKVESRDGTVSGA

[7] = target: T1, CYP1A2; assay: Inhibition of human CYP1A2 at 10 uM; type: ADME
[8] = target: T4, CYP2A6 (Homo sapiens, UniProt P11509); assay: Inhibition of human CYP2A6 at 10 uM; type: ADME
T4 sequence (P11509 whole entry): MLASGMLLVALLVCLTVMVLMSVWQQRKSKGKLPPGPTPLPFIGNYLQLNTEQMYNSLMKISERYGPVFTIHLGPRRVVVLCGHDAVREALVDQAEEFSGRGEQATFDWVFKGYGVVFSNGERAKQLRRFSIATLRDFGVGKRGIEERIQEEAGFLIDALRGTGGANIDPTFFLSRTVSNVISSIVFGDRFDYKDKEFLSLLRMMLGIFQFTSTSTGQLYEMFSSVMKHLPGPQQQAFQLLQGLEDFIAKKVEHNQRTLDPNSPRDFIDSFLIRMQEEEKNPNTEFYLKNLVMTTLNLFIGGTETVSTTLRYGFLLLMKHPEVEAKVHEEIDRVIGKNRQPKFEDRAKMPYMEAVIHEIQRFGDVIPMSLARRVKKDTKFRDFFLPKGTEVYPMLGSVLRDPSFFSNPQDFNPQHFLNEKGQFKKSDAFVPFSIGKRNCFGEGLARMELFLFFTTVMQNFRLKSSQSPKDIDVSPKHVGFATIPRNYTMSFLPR

[9] = target: T5, CYP2D6 (Homo sapiens, UniProt P10635); assay: Inhibition of human CYP2D6 at 3 uM; type: ADME
T5 sequence (P10635 whole entry): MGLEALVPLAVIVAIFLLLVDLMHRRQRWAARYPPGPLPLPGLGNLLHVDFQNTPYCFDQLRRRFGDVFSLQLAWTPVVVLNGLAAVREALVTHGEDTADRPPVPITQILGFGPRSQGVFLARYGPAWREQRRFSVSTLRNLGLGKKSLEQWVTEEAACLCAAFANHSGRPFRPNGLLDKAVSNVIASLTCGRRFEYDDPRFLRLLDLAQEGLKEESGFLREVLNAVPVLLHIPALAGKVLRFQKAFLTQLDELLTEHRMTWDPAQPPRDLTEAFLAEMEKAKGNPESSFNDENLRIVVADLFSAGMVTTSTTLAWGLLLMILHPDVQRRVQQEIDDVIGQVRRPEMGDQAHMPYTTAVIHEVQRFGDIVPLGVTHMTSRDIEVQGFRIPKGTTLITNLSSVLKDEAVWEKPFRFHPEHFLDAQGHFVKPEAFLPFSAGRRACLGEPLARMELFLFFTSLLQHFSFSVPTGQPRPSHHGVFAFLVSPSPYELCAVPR

[10] = target: T2, CYP2C19; assay: Inhibition of human CYP2C19 at 3 uM; type: ADME
[11] = target: T5, CYP2D6; assay: Inhibition of human CYP2D6 at 10 uM; type: ADME
[12] = target: T3, CYP3A4; assay: Inhibition of human CYP3A4 at 10 uM; type: ADME
[13] = target: T4, CYP2A6; assay: Inhibition of human CYP2A6 at 3 uM; type: ADME
[14] = AUCt in fasted Wistar rat at 10 mg/kg, iv; type: ADME, organism-based; design: dose 10 mg/kg, route intravenous; settings: plasma
[15] = Cmax in fasted Wistar rat at 10 mg/kg, iv; type: ADME, organism-based; design: dose 10 mg/kg, route intravenous; settings: in vivo
[16] = tested on: Rattus norvegicus; assay: Cognitive enhancing effect against scopolamine-induced memory deficit in Wistar rat at 30 mg/kg, po administered 60 mins before acquisition training measured after 5 days by Morris water maze test; type: functional, organism-based; design: dose 30 mg/kg
[17] = Half life in fasted Wistar rat at 10 mg/kg, iv; type: ADME, organism-based; design: dose 10 mg/kg, route intravenous; settings: in vivo
[18] = Clearance in fasted Wistar rat at 10 mg/kg, iv; type: ADME, organism-based; design: dose 10 mg/kg, route intravenous; settings: in vivo
[19] = target: 5-hydroxytryptamine receptor 4 (Homo sapiens, UniProt Q13639); assay: Inhibition of human 5HT4 receptor expressed in CHO cells after 5 hrs by luciferase reporter assay; type: cell-based
5-hydroxytryptamine receptor 4, sequence (Q13639 whole entry): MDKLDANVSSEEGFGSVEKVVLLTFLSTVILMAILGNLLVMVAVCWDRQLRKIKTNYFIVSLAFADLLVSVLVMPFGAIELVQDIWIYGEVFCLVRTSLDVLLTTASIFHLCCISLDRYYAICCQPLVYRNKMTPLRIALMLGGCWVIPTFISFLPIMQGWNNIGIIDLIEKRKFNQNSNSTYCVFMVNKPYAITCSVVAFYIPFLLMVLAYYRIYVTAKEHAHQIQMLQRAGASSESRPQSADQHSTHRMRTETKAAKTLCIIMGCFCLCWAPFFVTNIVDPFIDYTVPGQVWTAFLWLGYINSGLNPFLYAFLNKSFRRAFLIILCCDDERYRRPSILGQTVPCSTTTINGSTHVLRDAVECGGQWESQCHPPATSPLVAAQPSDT

[20] = target: 5-hydroxytryptamine receptor 7 (Homo sapiens, UniProt P34969); assay: Inhibition of human 5HT7 receptor expressed in CHO cells after 5 hrs by luciferase reporter assay; type: cell-based
5-hydroxytryptamine receptor 7, sequence (P34969 whole entry): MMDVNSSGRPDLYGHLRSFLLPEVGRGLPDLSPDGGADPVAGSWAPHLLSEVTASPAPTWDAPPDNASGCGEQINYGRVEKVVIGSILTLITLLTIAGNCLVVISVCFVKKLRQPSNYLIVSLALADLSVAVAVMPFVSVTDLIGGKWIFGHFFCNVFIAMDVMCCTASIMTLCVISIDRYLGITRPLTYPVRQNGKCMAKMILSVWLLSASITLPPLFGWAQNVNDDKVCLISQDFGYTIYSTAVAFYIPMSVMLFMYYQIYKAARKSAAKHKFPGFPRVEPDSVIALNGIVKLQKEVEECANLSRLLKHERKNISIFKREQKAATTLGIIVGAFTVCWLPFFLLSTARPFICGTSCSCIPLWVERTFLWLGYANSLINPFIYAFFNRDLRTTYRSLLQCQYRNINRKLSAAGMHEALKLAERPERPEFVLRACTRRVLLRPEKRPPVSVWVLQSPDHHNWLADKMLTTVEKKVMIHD

[21] = Half life in fasted Wistar rat at 10 mg/kg, po; type: ADME, organism-based; design: dose 10 mg/kg, route oral; settings: in vivo
[22] = Oral bioavailability in fasted Wistar rat; type: ADME, organism-based; settings: in vivo
[23] = Clearance in fasted Wistar rat at 10 mg/kg, po; type: ADME, organism-based; design: dose 10 mg/kg, route oral; settings: in vivo
[24] = target: T6, Muscarinic acetylcholine receptor M1 (Homo sapiens, UniProt P11229); assay: Inhibition of human muscarinic M1 receptor expressed in CHO cells after 5 hrs by luciferase reporter assay; type: cell-based
T6 sequence (P11229 whole entry): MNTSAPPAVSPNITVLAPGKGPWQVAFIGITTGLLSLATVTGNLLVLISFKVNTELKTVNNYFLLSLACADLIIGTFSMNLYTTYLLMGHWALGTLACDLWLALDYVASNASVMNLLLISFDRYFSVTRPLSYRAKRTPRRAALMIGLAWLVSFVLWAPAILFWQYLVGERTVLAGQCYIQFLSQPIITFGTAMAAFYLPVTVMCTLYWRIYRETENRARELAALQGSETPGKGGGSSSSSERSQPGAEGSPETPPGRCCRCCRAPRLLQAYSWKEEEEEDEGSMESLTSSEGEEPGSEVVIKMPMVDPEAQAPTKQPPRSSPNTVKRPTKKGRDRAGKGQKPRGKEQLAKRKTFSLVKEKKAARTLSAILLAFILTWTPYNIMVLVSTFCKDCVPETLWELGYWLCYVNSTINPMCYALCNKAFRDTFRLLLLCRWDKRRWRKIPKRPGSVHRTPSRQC

[25] = Apparent volume of distribution in fasted Wistar rat at 10 mg/kg, iv; type: ADME, organism-based; design: dose 10 mg/kg, route intravenous; settings: in vivo, read-out: Vz
[26] = AUCt in fasted Wistar rat at 10 mg/kg, po; type: ADME, organism-based; design: dose 10 mg/kg, route oral; settings: plasma
[27] = tested on: Rattus norvegicus; assay: Cognitive enhancing effect against scopolamine-induced memory deficit in Wistar rat at 10 mg/kg, po by novel object recognition test; type: functional, organism-based; design: dose 10 mg/kg
[28] = tested on: Rattus norvegicus; assay: Apparent volume of distribution in fasted Wistar rat at 10 mg/kg, po; type: ADME, organism-based; design: dose 10 mg/kg, route oral; settings: in vivo
[29] = Cmax in fasted Wistar rat at 10 mg/kg, po; type: ADME, organism-based; design: dose 10 mg/kg, route oral; settings: in vivo
[30] = Ratio of drug level at steady state in brain to plasma in fasted Wistar rat; type: ADME; settings: read-out: BPR

5-hydroxytryptamine receptor 6, sequence (P50406 whole entry): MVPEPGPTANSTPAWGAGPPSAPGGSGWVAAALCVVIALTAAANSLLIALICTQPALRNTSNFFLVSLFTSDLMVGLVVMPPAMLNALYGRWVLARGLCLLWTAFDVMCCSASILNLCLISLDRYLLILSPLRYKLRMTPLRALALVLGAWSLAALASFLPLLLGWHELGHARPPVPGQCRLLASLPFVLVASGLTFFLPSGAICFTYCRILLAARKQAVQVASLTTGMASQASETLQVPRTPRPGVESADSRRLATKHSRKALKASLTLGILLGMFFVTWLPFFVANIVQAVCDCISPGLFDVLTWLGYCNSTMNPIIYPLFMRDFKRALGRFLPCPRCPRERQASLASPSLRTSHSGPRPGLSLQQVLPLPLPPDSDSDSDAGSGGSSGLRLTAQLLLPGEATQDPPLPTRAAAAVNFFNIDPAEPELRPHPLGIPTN

| SMILES | Ki [1] [nM] | inhibition at 3 µM [2] [%] | inhibition at 10 µM [3] [%] | inhibition at 3 µM [4] [%] | inhibition at 10 µM [5] [%] | inhibition at 3 µM [6] [%] | inhibition at 10 µM [7] [%] | inhibition at 10 µM [8] [%] | inhibition at 3 µM [9] [%] | inhibition at 3 µM [10] [%] | inhibition at 10 µM [11] [%] | inhibition at 10 µM [12] [%] | inhibition at 3 µM [13] [%] | also measured |
| --- | --- | --- | --- | --- | --- | --- | --- | --- | --- | --- | --- | --- | --- | --- |
| CN1CCN(Cc2ccc3c(c2)c(Cl)cn3S(=O)(=O)c2ccc(Cl)cc2)CC1 | 9.33 | – | – | – | – | – | – | – | – | – | – | – | – | – |
| CCN1CCN(Cc2ccc3c(ccn3S(=O)(=O)c3ccc(F)cc3)c2)CC1 | – | 13.7 | 19.6 | -14.3 | 4.7 | 18.6 | 8.34 | 10.2 | 10.3 | 6.75 | 46 | 34.2 | -7.74 | – |
| CCN1CCN(Cc2ccc3c(ccn3S(=O)(=O)c3ccc(C)cc3)c2)CC1 | 11 | – | – | – | – | – | – | – | – | – | – | – | – | – |
| CN1CCN(Cc2ccc3c(ccn3S(=O)(=O)c3cccc(C(F)(F)F)c3)c2)CC1 | 3.15 | – | – | – | – | – | – | – | – | – | – | – | – | – |
| CN1CCN(Cc2ccc3c(ccn3C(=O)c3ccccc3)c2)CC1 | > 1000 | – | – | – | – | – | – | – | – | – | – | – | – | – |
| CCN1CCN(Cc2ccc3c(ccn3S(=O)(=O)c3ccccc3Br)c2)CC1 | – | 3.64 | 15.9 | 7.47 | 43.6 | -3.67 | 17.9 | 10.8 | 48.3 | 22.8 | 76.2 | 32.9 | -0.39 | AUC(0-t) [14]: 1380 ng·h/mL; Cmax [15]: 716 ng/mL; Activity [16]: Active; half-life [17]: 2.1 h; clearance [18]: 120 mL/min/kg; IC50 [19]: > 10000 nM; IC50 [20]: > 10000 nM; half-life [21]: 6.04 h; bioavailability [22]: 4.2%; CL/F [23]: 2140 mL/min/kg; IC50 [24]: 1420 nM; Vd [25]: 21.8 L/kg; AUC(0-t) [26]: 59 ng·h/mL; Activity [27]: Active; Vz [28]: 1035.145 L/kg; Cmax [29]: 13 ng/mL; Kp [30]: 19.3 |
| CCN1CCN(Cc2ccc3c(ccn3S(=O)(=O)c3cccc(C(F)(F)F)c3)c2)CC1 | 5.72 | – | – | – | – | – | – | – | – | – | – | – | – | – |
| O=S(=O)(c1ccc(F)cc1F)n1cc(Cl)c2cc(CN3CCNCC3)ccc21 | 5.57 | 14.5 | 27.8 | -12.6 | 72.9 | 26.4 | 14.6 | 6.37 | 1.46 | 31.9 | 17.7 | 45 | -3.62 | – |
| CCN1CCN(Cc2ccc3c(ccn3Cc3ccccc3)c2)CC1 | > 1000 | – | – | – | – | – | – | – | – | – | – | – | – | – |
| CN1CCN(Cc2ccc3c(ccn3S(=O)(=O)c3ccccc3)c2)CC1 | – | 14.4 | 18.2 | -8.69 | 31.2 | 8.24 | 17.3 | 4.81 | 12 | 9.91 | 31.2 | 5.47 | -2.24 | – |
| CCN1CCN(Cc2ccc3c(ccn3S(=O)(=O)c3ccc(C(C)C)cc3)c2)CC1 | – | 14.5 | 46.3 | 7.12 | 51.1 | 30.5 | 18.2 | 21.9 | 10.4 | 23.9 | 35.7 | 68.1 | -1.26 | – |
| CN1CCN(Cc2ccc3c(c2)c(Cl)cn3S(=O)(=O)c2ccc(F)cc2)CC1 | – | 3.4 | 9.13 | 6.42 | 21.5 | 2.6 | 26.9 | 19.8 | 6.42 | 10.1 | 15.2 | 39 | 14.1 | IC50 [19]: > 10000 nM; IC50 [20]: > 10000 nM; IC50 [24]: > 10000 nM |
| CCN1CCN(Cc2ccc3c(ccn3S(=O)(=O)c3ccc(Cl)cc3)c2)CC1 | 28.2 | – | – | – | – | – | – | – | – | – | – | – | – | – |
